Laboratory results from patent US20260015357A1, “MODULATORS OF NLRP3 INFLAMMASOME AND RELATED PRODUCTS AND METHODS” (Neumora Therapeutics, Inc., priority 2022, published 2026).

Key:
IL-6 = IL-6 in supernatants of LPS-primed, nigericin-treated THP1 macrophages, Hu IL-6 AlphaLISA; type: cell-based; settings: Homo sapiens, THP-1, PMA-differentiated, 1 hr compound, Nigericin 6.7 uM 3 hrs, IL-6 in supernatant
Method: (§1) NLRP3 Inflammasome Activation and Cell Viability Assessment in THP1 Macrophages
(§2) THP1—Human acute monocytic leukemia cells were cultured (ATCC, cat #TIB-202) in Gibco RPMI-1640 medium (ThermoFisher cat #72400054) supplemented with 10% Heat Inactivated FBS at density between 3-8×10^5 viable cells/mi. The cells were then subcultured when the cell concentration reached 8×10^5 cells/mL (every 2-3 days).
(§3) The parameter wells were filled with 50 ul PBS and incubated at 37° C., 5% CO2 for 48 hrs.
(§4) After 48 hrs incubation, the PMA containing media was removed, and changed for 40 ul/well of fresh DMEM, 10% FBS, 1× GlutaMax and incubated at 37° C., 5% CO2 for 24 hrs.
(§5) The following day the cells were primed with LPS (E. coli) (Sigma, cat #L3129) […] in DMEM, 10% FBS, 1× GlutaMax for 3 hrs at 37° C., 5% CO2.
(§6) Following the LPS priming step, the cells were treated with compounds at 10 uM top final concentration, 1:4 dilution, 8 times: (10 uM, 2.5 uM, 0.625 uM, 0.156 uM, 0.039 uM, 0.0097 uM, 0.0024 uM, 0.0006 uM). DMSO was used as a vehicle control, and MCC950 (InvivoGen, cat #inh-mcc) was used at 1 uM as a positive control, and incubated for 1 hrs at 37° C., 5% CO2.
(§7) Following the 1 hr compound incubation, the NLRP3 inflammasome activation step was conducted by treating cells with Nigericin (InvivoGen, cat #tlrl-nig) at 6.7 uM final concentration for 3 hrs at 37° C., 5% CO2.
(§8) Thereafter, 30 ul samples of cells' supernatants were collected for cytokine analysis which was conducted on Hu IL-1β AlphaLISA (Perkin Elmer, cat #AL220C) and Hu IL-6 AlphaLISA (Perkin Elmer, cat #AL220C). The cells' viability was assessed by performing CellTiter-Glo Luminescent Assay (Promega, cat #G7572) according to the manufacturer's protocol.

NLRP3 inflammasome = target: T1, NLRP3 inflammasome (Homo sapiens, UniProt Q96P20); test: NLRP3 inflammasome activation in LPS-primed, nigericin-activated THP1 macrophages, IL-1β AlphaLISA; type: cell-based; settings: PMA-differentiated, 1 hr compound, Nigericin 6.7 uM 3 hrs, IL-1β in supernatant
T1 construct: host or cells: THP1 human acute monocytic leukemia cells, PMA-differentiated, LPS-primed
Method: as §1, §2, §3, §4, §5, §6, §7, §8

T1 sequence (Q96P20 whole entry): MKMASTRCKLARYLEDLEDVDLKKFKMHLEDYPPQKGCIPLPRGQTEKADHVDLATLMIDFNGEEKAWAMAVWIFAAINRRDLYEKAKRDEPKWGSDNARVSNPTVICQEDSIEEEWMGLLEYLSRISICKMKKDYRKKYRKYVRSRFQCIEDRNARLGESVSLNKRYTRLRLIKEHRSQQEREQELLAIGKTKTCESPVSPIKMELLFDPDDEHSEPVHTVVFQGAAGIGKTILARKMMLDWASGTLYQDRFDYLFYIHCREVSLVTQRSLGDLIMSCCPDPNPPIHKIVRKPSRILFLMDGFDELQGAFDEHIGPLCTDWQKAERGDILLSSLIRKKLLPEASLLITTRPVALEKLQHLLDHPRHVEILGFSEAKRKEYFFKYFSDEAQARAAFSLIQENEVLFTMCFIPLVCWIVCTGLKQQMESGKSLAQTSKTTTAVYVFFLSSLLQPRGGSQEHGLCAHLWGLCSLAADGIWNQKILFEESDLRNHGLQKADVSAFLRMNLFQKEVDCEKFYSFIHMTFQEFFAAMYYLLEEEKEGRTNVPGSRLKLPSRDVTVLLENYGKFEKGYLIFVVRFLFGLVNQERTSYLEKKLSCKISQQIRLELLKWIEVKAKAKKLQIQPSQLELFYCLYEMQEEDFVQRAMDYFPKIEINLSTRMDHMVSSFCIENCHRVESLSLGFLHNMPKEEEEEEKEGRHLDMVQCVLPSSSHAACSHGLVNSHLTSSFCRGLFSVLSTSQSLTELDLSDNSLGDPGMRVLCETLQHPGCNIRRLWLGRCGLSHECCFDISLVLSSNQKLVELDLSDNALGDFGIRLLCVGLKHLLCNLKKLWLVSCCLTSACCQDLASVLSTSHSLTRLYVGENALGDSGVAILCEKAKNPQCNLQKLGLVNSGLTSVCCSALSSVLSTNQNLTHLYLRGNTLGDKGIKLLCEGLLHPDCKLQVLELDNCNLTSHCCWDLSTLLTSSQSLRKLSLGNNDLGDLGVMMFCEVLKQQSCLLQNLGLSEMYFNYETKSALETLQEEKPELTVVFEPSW

SMILES	IC50 (IL-6)	IC50 (NLRP3 inflammasome)
CN1CCC[C@@H](Nc2nnc(-c3ccc(C(F)(F)F)cc3C(F)F)c3cnn(C)c23)C1 [Compound 119]	≥ 10 µM	0.01 to 0.1 µM
CN1CCC[C@@H](Nc2nnc(-c3ccc(F)cc3O)c3ccn(C)c23)C1 [Compound 78]	1 to 5 µM	< 0.01 µM
CN1CCC[C@@H](N(C)c2nnc(-c3ccc(C(F)(F)F)cc3)c3ccsc23)C1 [Compound 95]	≥ 10 µM	0.5 to 1 µM
Cc1cc(C#N)cc(O)c1-c1nnc(N[C@@H]2CCCN(C)C2)c2c1cnn2C [Compound 115]	≥ 10 µM	< 0.01 µM
Cn1ccc2c(-c3ccc(C(F)(F)F)cc3)nnc(N[C@@H]3CCCN(S(C)(=O)=O)C3)c21 [Compound 159]	≥ 10 µM	1 to 10 µM
Cn1ccc2c(-c3ccc(C#N)cc3O)nnc(N[C@@H]3CCCNC3)c21 [Compound 158]	5 to 10 µM	0.01 to 0.1 µM
CN1CCC[C@@H](Nc2nnc(-c3ccc(F)cc3O)c3[nH]ccc23)C1 [Compound 7]	≥ 10 µM	0.1 to 0.5 µM
CN1CCC[C@@H](N(C)c2nnc(-c3ccc(C(F)(F)F)cc3)c3c2ccn3C)C1 [Compound 71]	≥ 10 µM	1 to 10 µM
CN1CCC[C@@H](N(C)c2nnc(-c3ccc(C(F)(F)F)cc3)c3ccn(C)c23)C1 [Compound 27, (R)—N,1-dimethyl-N-(1-methylpiperidin-3-yl)-4-(4-(trifluoromethyl)phenyl)-1H-pyrrolo[2,3-d]pyridazin-7-amine]	≥ 10 µM	1 to 10 µM
CN1CCC[C@@H](N(C)c2nnc(-c3ccc(C(F)(F)F)cc3)c3ncn(C)c23)C1 [Compound 105]	≥ 10 µM	≥ 10 µM
CN1CCC[C@@H](Nc2nnc(-c3ccc(C(F)(F)F)cc3)c3occc23)C1 [Compound 54]	1 to 5 µM	0.1 to 0.5 µM
CN1CCC[C@@H](Nc2nnc(-c3ccc(C(F)(F)F)cc3)c3ccn(C)c23)C1 [Compound 26]	5 to 10 µM	0.01 to 0.1 µM
Cc1cc2c(-c3ccc(C(F)(F)F)cc3)nnc(N[C@@H]3CCCN(C)C3)c2n1C [Compound 101]	5 to 10 µM	0.01 to 0.1 µM
CN1CCC[C@@H](N(C)c2nnc(-c3ccccc3O)c3[nH]ccc23)C1 (single isomer, unassigned) [Compound 68]	5 to 10 µM	≥ 10 µM
CN1CCC[C@@H](Nc2nnc(-c3ccc(Cl)cc3)c3[nH]ccc23)C1 [Compound 11]	≥ 10 µM	1 to 10 µM
CN1CCC[C@@H](Oc2nnc(-c3ccc(C(F)(F)F)cc3)c3ccsc23)C1 [Compound 87]	≥ 10 µM	0.1 to 0.5 µM
Cc1cc(-c2nnc(N[C@@H]3CCCN(C)C3)c3cc[nH]c23)ccc1C(F)(F)F [Compound 66]	≥ 10 µM	≥ 10 µM
Cn1ncc2c(-c3ccc(C(F)(F)F)cc3)nnc(N[C@@H]3CCCN(CC4CC4)C3)c21 [Compound 108]	≥ 10 µM	0.01 to 0.1 µM
CN1CCC[C@@H](Nc2nnc(-c3ccc(Cl)cc3C(F)F)c3cnn(C)c23)C1 [Compound 118]	≥ 10 µM	0.01 to 0.1 µM
CN1CCC[C@@H](Nc2nnc(-c3ccc(C#N)cc3Cl)c3ccn(C)c23)C1 [Compound 124]	≥ 10 µM	0.1 to 0.5 µM
CN1CCC[C@@H](Nc2nnc(-c3ccccc3O)c3c2ccn3C)C1 (single isomer, unassigned) [Compound 67]	≥ 10 µM	0.01 to 0.1 µM
CN1CCC[C@@H](Nc2nnc(-c3ccc(F)cc3)c3[nH]ccc23)C1 [Compound 9]	≥ 10 µM	≥ 10 µM
CN1CCC[C@@H](Nc2nnc(-c3ccc(C(F)(F)F)cc3)c3cnn(C)c23)C1 [Compound 31]	≥ 10 µM	0.01 to 0.1 µM
CN1C[C@H](Nc2nnc(-c3ccc(C#N)cc3O)c3ccn(C)c23)CC(F)(F)C1 [Compound 145]	≥ 10 µM	≥ 10 µM
CN1CCC[C@@H](Nc2nnc(-c3ccc(C#N)cc3O)c3c2cnn3C)C1 [Compound 104]	≥ 10 µM	0.01 to 0.1 µM
